Key:
[1] = LogD measurement, shake-flask partition between 1-octanol and PBS; format: physicochemical; conditions: 1-octanol / PBS pH 7.4
Method: The lipophilicity of ^18F-FM074 and ^18F-FM074-Ox was determined by measuring their logD values using a variation of the conventional shake-flask method, namely a conventional partition method between 1-octanol and phosphate buffered saline (PBS), pH 7.4. The 1-octanol was saturated with PBS before use. The radiotracer (1 μL) in ethanol was added to a mixture of PBS (200 μL) and 1-octanol (200 μL) in a 1.5 mL Eppendorf vial (n =6). The vial was sealed and shaken, then centrifuged at 3000 g for 10 min. A 100 μL aliquot from each layer was drawn was added to separate tubes. The radioactivity content of each fraction was measured in a gamma counter. The LogDoct/PBS as calculated as follows: log [(cpm in the 1-octanol layer-cpm 1-octanol blank)/(cpm in the PBS layer-cpm pbs blank)].

[2] = Biodistribution in healthy Wistar rats; format: in vivo; conditions: for uptake by major organs (brain, heart, lung, spleen): i.v., 1, 5 and 30 min post-injection
Method: Male Wistar rats (290-355 g) were placed in a warm box at 37° C. before being transferred to an anaesthesia induction box under an O2 flow rate of 1 L/min with isofluorane levels of 5%. The anaesthetised rat was transferred to an anaesthesia mask with an O2 flow rate of 1 L/min with isofluorane levels of 2.5%. The radiotracer (0.5-2.2 MBq, 200-600 μL in maximum 5% EtOH in PBS) was injected intravenously via a cannula inserted into a tail vein. The animals were sacrificed by cervical dislocation at 1, 5, and 30 min post-injection (n=3/group). The heart was immediately removed and rinsed with saline to washout the blood. Organs of interest as well as blood and urine were collected and the radioactivity measured in a gamma counter.

[3] = Stability tests monitored by HPLC in ethanol / PBS; format: physicochemical
Method: (§1) Stability tests monitored by HPLC indicate that ^18F-FM074 is stable in both pure ethanol and 1% ethanol in PBS in the presence of ascorbic acid (0.01 mg/mL) for 4 h (not tested for longer). When incubated in rat serum at 37° C., 90% of ^18F-FM074 was intact in 1 hour (FIG. 3(A)). The stability of ^18F-FM108 in PBS was also determined and it was stable in 30 minutes (FIG. 3(B)).

[4] = Chemoselectivity study: oxidation by superoxide (KO2), radioHPLC; conditions: for oxidation by superoxide: 1 mg/mL KO2 in solution, 5 min, room temperature; for oxidation by superoxide in the presence of ascorbic acid: KO2 plus ascorbic acid 1 mg/mL
Method: (§2) The different oxidants were prepared in PBS (900 μL). The ^18F-labelled compound was formulated as 0.5-2 MBq in 100 μL ethanol and added to the oxidant PBS solution. The final reaction mixture contains the ^18F-labelled compound (0.5-2 MBq) in the presence of 100 μM oxidant in PBS with 10% ethanol (final volume 1000 μL). The reaction was kept at room temperature for 5 min, after which it was injected into the HPLC for analysis. • Superoxide (O2^−): The ^18F-labelled compound in ethanol (100 μL) was added to PBS (900 μL) and the resulting solution was then added to a vial containing solid KO2 (1 mg), to make up a reaction mixture with 10 mM O2^−. • Hydrogen peroxide (H202): H2O2 (10 mM stock solution, 10 μL) was diluted in PBS (890 μL) followed by addition of the ^18F-labelled compound in ethanol (100 μL), to a final concentration of 100 μM. • Hydroxyl radical (⋅OH): hydroxyl radicals were generated in situ by reacting hydrogen peroxide (H202, 100 μM) with iron II ([…]). FeSO2.7H2O (5 mM stock, 200 μL) was diluted in PBS (690 μL) and H2O2 (10 mM stock, 10 μL) was added, followed by the ^18F-labelled compound in 100 μL ethanol. • Iron (II) sulfate heptahydrate (Fe^2+) (control): FeSO2.7H2O (5 mM stock, 200 μL) was diluted to a final concentration of 1000 μM in PBS (700 μL), and the ^18F-labelled compound in 100 μL ethanol was added after. • tert-butyl hydroperoxide (TBHP): TBHP (10 mM stock, 10 μL) was diluted in PBS (890 μL) followed by addition of the ^18F-labelled compound in ethanol, to a final concentration of 100 μM. • Tert-butoxy radical (t-BuO⋅): t-butoxy radicals were generated in situ by reacting tert-butyl hydroperoxide (TBHP, 100 μM) with Fe^2+ (1000 μM). FeSO2.7H2O (5 mM stock, 200 μL) was diluted in PBS (690 μL) and TBHP (10 mM stock, 1 μL) was added, followed by the ^18F-labelled compound in ethanol. • Peroxynitrite (ONOO^−): peroxynitrite was generated in situ by spontaneous decomposition of 3-morpholinosydnomine (SIN-1) in solution. SIN-1 (5 mM stock, 1 μL) was diluted in PBS (989 μL) containing the ^18F-labelled compound in ethanol (10 μL), to give a final concentration of 50 μM ONOO^− in solution. • Nitric oxide (NO): NO was generated in situ by the NO-donor drug diethylamine NONOate (DEA/NO). A 33 mM stock solution of DEA/NO in 10 mM NaOH was used. 1 μL was diluted in PBS (990 μL) containing the ^18F-labelled compound in ethanol (10 μL), to give a final concentration of 33 μM DEA/NO in solution. The reaction was allowed to take place for 32 min at room temperature (˜20° C.) to allow DEA/NO to decompose into diethylamine and nitric oxide radical (NO) at a concentration of 50 μM, before HPLC analysis.

[5] = Chemoselectivity study: oxidation by other ROS, radioHPLC; conditions: in vitro; for reactivity to other biologically relevant ROS: qualitative
Method: as §2, with “SIN-1 (5 mM stock, 1 μL) was diluted in PBS (989 μL) containing the ^18F-labelled compound in ethanol (10 μL), to give a final concentration of 50 μM ONOO^− in solution. • Nitric oxide (NO): NO was generated in situ by the NO-donor drug diethylamine NONOate (DEA/NO). A 33 mM stock solution of DEA/NO in 10 mM NaOH was used. 1 μL was diluted in PBS (990 μL) containing the ^18F-labelled compound in ethanol (10 μL), to give a final concentration of 33 μM DEA/NO in solution. The reaction was allowed to take place for 32 min at room temperature (˜20° C.) to allow DEA/NO to decompose into diethylamine and nitric oxide radical (NO) at a concentration of 50 μM, before HPLC analysis.” left out

[6] = Stability in rat serum at 37° C. determined by radioHPLC; format: in vitro ADME; conditions: 1 hour
Method: as §1

[7] = system: xanthine oxidase/xanthine system; assay: Oxidation by superoxide generated by the xanthine oxidase/xanthine system; format: biochemical; conditions: xanthine (1 mM) and catalase in PBS, 37° C., 5 min
[8] = PET imaging study in healthy C57BL/6J mice; format: in vivo
Method: Wild type C57BL/6J mice (male, 26±2 g) were injected intravenously via the tail vein with [^18F]FM074 (1.2±1.1 MBq) in PBS containing sodium ascorbate (0.01 mg/mL). The animals were sacrificed either 3 min post-injection or after a 60 min PET (n=3/group). Organs and tissues of interest were harvested, weighed and the radioactivity measured in a gamma counter. Organ uptake was calculated as percentage injected dose per gram of tissue mass (% ID/g). Data are reported as mean±SD.
The radiotracer is excreted by both renal and hepatobilliary routes in less than 1 hour (FIG. 5).

[9] = system: oxidative stress in heart (left ventricle); assay: PET/CT imaging in rat model of Doxorubicin-induced cardiotoxicity; format: in vivo, rats
Method: Wistar rats were randomly divided into two groups and were subjected to the implantation of an Alzet Osmotic minipump containing either Doxorubicin (30 mg/kg) in saline (n=6) or saline only (n=4) as control. The minipump releases the drug at a constant rate over seven days, after which PET/CT imaging was performed.
(§3) Male Wistar rats (280-300 g) were used in all experiments. Subcutaneous 7-day osmotic pumps (Alzet), containing either Doxorubicin (Cambridge Bioscience, 30 mg/kg cumulative dose) or vehicle (sterile 0.9% NaCl), were inserted into rats under 2% isoflurane in 100% oxygen.
Doxorubicin (30 mg/kg) or only vehicle (saline) was delivered to the animals using the osmotic minipump for seven days, after which PET/CT imaging was performed.
Animals were placed in a warm box at 37° C. before being transferred to an anaesthesia induction box under an 02 flow rate of 1 L/min with isofluorane levels of 5%. The anaesthetised rats were transferred to the PET bed and kept under anaesthesia with an O2 flow rate of 1 L/min with isofluorane levels of 2.5%. The radiotracer (0.5-2.2 MBq, 200-600 μL in maximum 5% EtOH in PBS) was injected intravenously via a cannula inserted into a tail vein. The injection start time coincided with the start of the PET acquisition in order to obtain dynamic tracer uptake information. The PET scans were acquired for 30 min, followed by a CT scan, after which the animals were sacrificed and organs harvested as for the biodistribution protocol. The PET data was analysed using VivoQuant.
Subsequently, both groups were subjected to 30 min PET/CT scans with chest cavity in the field of view on day 7 of the treatment. (FIG. 8) The PET images were analysed into three segments: from 0 to 3 min, 3 to 10 min, and 10 to 30 min post-injection of ^18F-FM074.

left ventricle function = assay: Echocardiography (cardiac ultrasound) in Doxorubicin minipump rats; format: in vivo
Method: In order to assess cardiac function all rats were subjected to a cardiac ultrasound (Vevo 770™, VisualSonics) one day prior to osmotic pump implantation and a second ultrasound one day prior to PET/CT imaging. Rats were anaesthetized with 2% isoflurane in 100% oxygen and maintained at 37° C. via a homoeothermic platform and rectal thermometer. High-resolution parasternal left ventricle (LV) long axis M-mode and B-mode images were obtained using a RMV710B transducer. Images were analysed offline using Vevo Software to determine LV function.
as §3

[10] = healthy C57BL/6 mice, i.v., PET

[18F]CCC[n+]1c(-c2ccccc2)sc2ccccc21.[Cl-] [^18F-FM074-Ox, [^18F]-(3-fluoropropyl)-2-phenylbenzo[d]thiazol-3-ium chloride]
logD [1]: −1.00±0.04 | clearance route ([2]; excreted through the urine): quickly cleared by the kidneys | uptake by major organs (brain, heart, lung, spleen) [2]: significantly reduced uptake

COc1ccc(C2Sc3ccccc3N2CCC[18F])cc1 (stereo not drawn) [^18F-FM108, [^18F]3-(3-fluoropropyl)-2-(4-methoxyphenyl)-2,3-dihydrobenzo[d]thiazole]
logD [1]: 0.83±0.12 | stability in PBS ([3]; PBS, 30 minutes (FIG. 3(B))): stable | oxidation by superoxide [4]: 54±4% | oxidation by superoxide in the presence of ascorbic acid [4]: 38% | reactivity to other biologically relevant ROS [5]: little or no reactivity

[18F]CCCN1c2ccccc2SC1c1ccccc1 (stereo not drawn) [^18F-FM074, [^18F]3-(3-fluoropropyl)-2-phenyl-2,3-dihydrobenzo[d]thiazole]
logD [1]: 1.00±0.08 | stability in 1% ethanol in PBS ([3]; 1% ethanol in PBS in the presence of ascorbic acid (0.01 mg/mL), for 4 h, HPLC): stable | stability in pure ethanol ([3]; pure ethanol, for 4 h (not tested for longer), HPLC): stable | intact tracer in rat serum [6]: 90% | oxidation by superoxide [4]: 58±8% | oxidation by superoxide in the presence of ascorbic acid [4]: 31±5% | reactivity to other biologically relevant ROS [5]: little or no reactivity | oxidation by other endogenous ROS ([5]; ⋅OH, H2O2, ⋅NO, ONOO^−): less than 10% | oxidised tracer observed in radioHPLC chromatogram [7]: 53% | non-specific background retention ([8]; healthy C57BL/6 mice, heart and brain, PET): no non-specific background retention | blood clearance [8, 10]: fast blood clearance | time to excretion by renal and hepatobilliary routes [8, 10]: less than 1 hour | tissue penetration [8, 10]: excellent tissue penetration | uptake by heart and brain [8, 10]: rapidly taken up | bone uptake (defluorination in vivo) ([8]; mice, after 1 hour): minimal | clearance from the blood pool ([2]; 1 min post-injection): fast clearance | time to clearance from major organs ([2]; hepatic and renal metabolism, excreted to small intestine and urine): under 30 min | uptake by major organs (brain, heart, lung, spleen) [2]: rapid initial uptake | uptake in bone and muscle ([2]; within 30 min): little uptake | ratio of standard uptake values LV to blood, Doxorubicin-treated vs control rats ([9]; 3-10 min post-injection, day 7 of Doxorubicin 30 mg/kg minipump): significantly (p<0.05) higher | liver uptake ([9]; PET, Doxorubicin model rats, no significant difference between treated and control): high uptake | heart uptake ex vivo after the PET/CT scan, treated vs control ([9]; ex vivo, after 30 min scan): no significant difference | washout rate from the LV, Doxorubicin treated vs control ([9]; time-activity curves, FIG. 10): two-fold slower

COc1cccc2c1C(=O)c1c(O)c3c(c(O)c1C2=O)C[C@@](O)(C(=O)CO)C[C@@H]3O[C@H]1C[C@H](N)[C@H](O)[C@H](C)O1 [Doxorubicin]
reduction of left ventricle ejection fraction vs baseline (left ventricle function; 30 mg/kg via 7-day osmotic minipump, day 6 compared to day 0): 15% | left ventricle ejection fraction, Doxorubicin treated vs control groups (left ventricle function; ultrasound, FIG. 7): no significant difference
